Consider four compounds from patent US11903959B2 (EMORY UNIVERSITY, priority 2017, dated 2024).

The subject of data set [1] is Influenza A/Wisconsin/67/2005 (H3N2). On the set-up: species or system ferrets. The conditions noted are these: in vivo.
The nature of data set [2]: in vitro. The conditions noted are these: human, microsomes.
Data set [3] is described as follows: in vitro. The conditions noted are these: dog, microsomes.
The nature of data set [4]: in vitro. The settings on record: rat, microsomes.
Data set [5] in a line: in vitro. The settings on record: mouse, microsomes.
For data set [6] the following is noted: cynomolgus monkey, in vivo, po; for AUC0->24 h / CL / Cmax / t1/2 / tmax: 0.4 mmol/kg.
Data set [7] can be described thus: in vitro. The conditions noted are these: monkey, microsomes.
Data set [8] has as its system Influenza A/California/07/2009 (H1N1). On the set-up: species or system ferrets. The settings on record: in vivo, po.
The nature of data set [9]: Plasma stability, human.
Data set [10] in a line: Plasma stability, monkey.
Data set [11] can be described thus: Plasma stability, mouse.
Data set [12] relates to HepG2 cells.
The test system of data set [13] is Huh-7 cells.
In data set [14] the test system is Vero cells.
Data set [15] has as its system CEM cells.
The conditions of data set [16]: mouse, in vivo.

Where two headings read alike, the source gives them in different places.

The half-life is the time in which the quantity being followed falls by half. As for `CC(C)C(=O)OC[C@H]1O[C@@H](n2ccc(NO)nc2=O)[C@H](O)[C@@H]1O` [EIDD-2801], in data set [1] (20 mg/kg), the “viral titers in nasal lavage and turbinates” value was “greatly reduced”. Also, the “Viral titers in nasal lavage, fever, and viral titers in turbinates” value in [1] (100 mg/kg) is recorded as “greatly reduced”. Further, the half-life in data set [2] was determined as 73 min. In addition, in data set [3], the half-life came to 1 min. The compound further returned a half-life in [4] of 5 min. In data set [5], this compound showed a half-life of 2 min. For the same compound, in data set [6] (female), the F is ~26%, the “AUC0->24 h” value came out at 43.8 ± 17.0 µM·h, the CL turned out to be 172 ± 93.3 mL/min/kg and the Cmax came to 12.3 ± 2.33 µM. In data set [6] (female), this compound displayed a t1/2 of 114 ± 78 min and a tmax of 75 ± 30 min. Also, in data set [6] (male), the “AUC0->24 h” value is 31.7 ± 7.82 µM·h, the CL was 217 ± 61.7 mL/min/kg, the Cmax amounted to 8.08 ± 1.32 µM and the t1/2 is 108 ± 54.6 min. In addition, the tmax in data set [6] (male) is 120 ± 48.6 min. Moreover, the half-life in data set [7] came out at 1 min. Moreover, in data set [8], the Fever result is on record as “completely avoided”; the “Viral titers in nasal lavage samples” value was “greatly reduced”; the “viral titers in nasal lavage samples and fever” value is given as “rapidly reduce viral titers in nasal lavage samples as well as fever”.
In the case of `CC(C)C(=O)OC[C@H]1O[C@@H](n2ccc(NO)nc2=O)[C@H](OC(=O)C(C)C)[C@@H]1OC(=O)C(C)C` [EIDD-2800], the half-life was determined as 1 min in data set [2] and 2 min in data set [7]. Besides, the “Plasma t1/2” value in [9] is 1 min; in data set [10] it was 2 min; in data set [11], 1 min. Also, in [6] (female), the F is reported as ~16%. The “AUC0->24 h” value was 27.4 ± 11.5 µM·h in data set [6] (female) and 38.9 ± 7.58 µM·h in data set [6] (male). The CL in data set [6] (female) worked out at 265 ± 128 mL/min/kg; in [6] (male), 152 ± 21.7 mL/min/kg. Moreover, the t1/2 in data set [6] (female) came out at 264 ± 72 min; in data set [6] (male) it was 330 ± 252 min. For the same compound, the tmax in data set [6] (female) came to 18.6 ± 7.2 min; in data set [6] (male), 22.2 ± 8.4 min.
Take `O=c1nc(NO)ccn1[C@@H]1O[C@H](COP(=O)(O)OP(=O)(O)OP(=O)(O)O)[C@@H](O)[C@H]1O` [EIDD-2061]: the “AUC0->t” value is 299.8 pmol · h/M cells in data set [12], 14640 pmol · h/M cells in data set [13], 13850 pmol · h/M cells in data set [14] and 2355 pmol · h/M cells in data set [15]. In addition, the Cmax in data set [12] was 470.3 pmol/M Cells; in data set [13], 1113.3 pmol/M Cells; in data set [14], 872.0 pmol/M Cells; in [15], 171.3 pmol/M Cells. In addition, the tmax was found to be 960 min in [12], 1440 min in data set [13], 960 min in data set [14] and 1440 min in data set [15]. Also, the “Brain Cmax” value in data set [16] (225 mg/kg) turned out to be 3.5 nmol/g; in [16] (750 mg/kg) it was 5.5 nmol/g.
Regarding `CC(C)[C@H](N)C(=O)OC[C@H]1O[C@@H](n2ccc(NO)nc2=O)[C@H](O)[C@@H]1O` [EIDD-2898], the “Plasma t1/2” value in data set [9] was found to be 198 min; in [10] it was 138 min; in data set [11], 144 min. For the same compound, the F in data set [6] is listed as ~15%. The “F*” value in [6] is listed as ~18%.
